{
  "source": "patent US7371529B2",
  "about": "“Methods and compositions for modulating gluconeogenesis using PGC-1” (Dana-Farber Cancer Institute, Inc., priority 2001, dated 2008)",
  "molecules": {"B1": {"name": "constitutively active FKHR: FKHR with three phosphorylatable amino acids changed to alanine (protein, UniProt Q12778 1-655, looked up, variant T24A S256A S319A)", "Forkhead box protein O1": "MAEAPQVVEIDPDFEPLPRPRSCAWPLPRPEFSQSNSATSSPAPSGSAAANPDAAAGLPSASAAAVSADFMSNLSLLEESEDFPQAPGSVAAAVAAAAAAAATGGLCGDFQGPEAGCLHPAPPQPPPPGPLSQHPPVPPAAAGPLAGQPRKSSSSRRNAWGNLSYADLITKAIESSAEKRLTLSQIYEWMVKSVPYFKDKGDSNSSAGWKNSIRHNLSLHSKFIRVQNEGTGKSSWWMLNPEGGKSGKSPRRRAAAMDNNSKFAKSRSRAAKKKASLQSGQEGAGDSPGSQFSKWPASPGSHSNDDFDNWSTFRPRTSANASTISGRLSPIMTEQDDLGEGDVHSMVYPPSAAKMASTLPSLSEISNPENMENLLDNLNLLSSPTSLTVSTQSSPGTMMQQTPCYSFAPPNTSLNSPSPNYQKYTYGQSSMSPLPQMPIQTLQDNKSSYGGMSQYNCAPGLLKELLTSDSPPHNDIMTPVDPGVAQPNSRVLGQNVMMGPNSVMSTYGSQASHNKMMNPSSHTHPGHAQQTSAVNGRPLPHTVSTMPHTSGMNRLTQVKTPVQVPLPHPMQMSALGGYSSVSSCNGYGRMGLLHQEKLPSDLDGMFIERLDCDMESIIRNDLMDGDTLDFNFDNVLPNQSFPHSVKTTTHSWVSG"}},
  "key": {"[1]": {"system": "PGC-1", "test": "STZ-diabetic mouse, liver PGC-1 (Northern)", "type": "in vivo", "details": "STZ-diabetic mice, after 10 days", "description": "For the feeding experiments, male mice were either allowed free access to food or subjected to a 24 hour fast and sacrificed at the end of 24 hours. A third group was fasted for 24 hours and then fed ad libitum for another 24 hours prior to sacrifice. For the STZ-diabetic mouse experiments, 6-8 week old male mice (n=3 per group) were injected intraperitoneally for three consecutive days with either sodium citrate solution or streptozotocin ([…] of body weight per injection). Animals were sacrificed after 10 days, at which point the mean blood glucose in the STZ-treated group rose to over 400 mg/dl. For the LIRKO mouse experiments, two-month-old female control (lox/lox) or LIRKO mice were divided into three groups (n=2 each) and subjected to the standard feeding protocol as described above.\nTotal RNA was prepared from cells or tissues with Trizol (Life Technologies) according to the manufacturer's instructions. Ten to twenty micrograms of total RNA was fractionated in a 1% agarose-formaldehyde gel, transferred onto nylon, and hybridized with cDNA probes labeled by random-primed labeling (Boehringer Mannheim) with [-^32P]-dCTP, using methods known in the art. […]"}, "[2]": {"system": "FKHR", "test": "G6 Pase promoter-reporter, FKHR coactivation", "type": "cell-based", "details": "PGC-1 cotransfected with FKHR"}, "[3]": {"system": "FKHR", "test": "3×IRS promoter-luciferase reporter, FKHR coactivation", "type": "cell-based", "details": "PGC-1 cotransfected with wild-type or mutant FKHR"}, "[4]": {"system": "G6 Pase promoter", "test": "G6 Pase promoter-luciferase reporter in SV40 transformed hepatocytes", "type": "cell-based", "description": "PGC-1 and/or HNF-4α were cotransfected into SV40 transformed hepatocytes, and the ability to coactivate the glucose-6-phosphatase (G6 Pase) promoter was determined using a luciferase reporter gene. Experiments were performed in duplicate."}, "[5]": {"system": "gluconeogenic, ketogenic, and beta-oxidation genes", "test": "Gene induction in control (floxed) or HNF-4α null primary hepatocytes", "type": "cell-based", "details": "presence and absence of HNF-4α", "description": "The ability of PGC-1 to induce mRNA expression of gluconeogenic, ketogenic, and beta-oxidation genes was examined in cells lacking HNF-4α. Control (floxed) or HNF-4α null cells (primary hepatocytes) were infected with adenoviruses containing GFP (control) or PGC-1 and were either untreated, serum-starved, or treated with dexamethasone and cAMP."}, "[6]": {"target": "T1, HNF-4α (Homo sapiens, UniProt P41235)", "T1 construct": "made in house; host or cells: TNT reticulocyte lysate in vitro transcription/translation (Promega)", "T1 sequence (P41235 1-474)": "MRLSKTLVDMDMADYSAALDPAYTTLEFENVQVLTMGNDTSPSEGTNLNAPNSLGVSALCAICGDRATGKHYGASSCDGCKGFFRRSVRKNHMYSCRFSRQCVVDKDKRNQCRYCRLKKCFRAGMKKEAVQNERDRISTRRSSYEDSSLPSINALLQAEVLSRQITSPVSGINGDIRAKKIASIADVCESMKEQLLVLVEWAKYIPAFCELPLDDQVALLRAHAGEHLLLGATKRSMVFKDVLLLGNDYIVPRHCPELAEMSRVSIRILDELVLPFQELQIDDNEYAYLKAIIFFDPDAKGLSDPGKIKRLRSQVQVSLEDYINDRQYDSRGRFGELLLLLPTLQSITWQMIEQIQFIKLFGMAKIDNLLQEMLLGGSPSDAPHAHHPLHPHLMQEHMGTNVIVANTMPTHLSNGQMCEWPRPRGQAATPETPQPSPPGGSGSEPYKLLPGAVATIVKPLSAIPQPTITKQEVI", "test": "Multimerized AF1 reporter assay in NIH 3T3 fibroblasts, HNF-4α", "type": "cell-based", "details": "NIH 3T3, no hormone or ligand added", "description": "(§1) NIH 3T3 or Fao hepatoma cells were cultured in 10% FBS-RPMI and transfected at 70-90% confluency using Fugene 6 (Roche). The ratio of DNA:Fugene was 1:2. Culture medium was changed after 24 hours. Cells were collected 48 hours after transfection and β-galactosidase and luciferase assays were performed. Transfections were performed in duplicate and repeated at least twice.\n(§2) To examine these functional interactions at the AF1 site with intact transcription factors, reporter gene assays were performed using PGC-1, wild-type HNF-4α and COUP-TF proteins, and a multimerized AF1 response element. To avoid interference with endogenous liver factors, these experiments were done in NIH 3T3 fibroblasts. Transfections were done as described above for FIG. 4. Neither HNF-4α, COUP-TF, nor PGC-1 activates these target sequences alone (FIG. 6)."}, "[7]": {"system": "COUP-TF", "test": "Multimerized AF1 reporter assay in NIH 3T3 fibroblasts, COUP-TF", "type": "cell-based", "description": "as §1, §2"}, "[8]": {"system": "PGC-1 protein, glucose-6-phosphatase and PEPCK mRNA", "test": "Adenovirus infusion in Wistar rats, liver immunoblot and Northern", "type": "in vivo", "details": "rat liver, adenoviral PGC-1", "description": "Male Wistar rats (Charles River) were fed with standard laboratory food and weighed 300-350 g at the time of the studies. Animals were anesthetized by injection of 0.1 ml per 100 g body mass of a solution containing 25 mg/ml of xylazine (Phoenix Scientific) and 0.5 mg/ml of acepromazine (Fermenta Animal Health). CMV-GFP and CMV-PGC-1 adenoviruses were purified by CsCl gradient centrifugation as described in Becker, T. et al. (1994) Methods Cell Biol. 43:161-189. Pure recombinant virus (1×10^12 plaque forming units), suspended in 0.5 ml of phosphate buffered saline (PBS), was injected into anesthetized rats through the tail vein. Animals were allowed to recover and were fed standard food ad libitum. Five days after adenovirus infusion, tail vein blood was collected at 14:00 for measurement of glucose concentration, using a β-glucose analyzer (HemoCue AB). After the measurement, animals were sacrificed. Blood samples were collected from the heart, centrifuged at 1300 g for 15 minutes at 4° C. in 15 ml centrifuge tubes containing 50 μl of 0.4 M EDTA, and stored at −20° C. before measurement of insulin concentrations with a rat insulin specific radioimmunoassay kit (Linco Research). Liver samples were collected, snap frozen in liquid nitrogen, and stored at −80° C. Aliquots of frozen liver samples were processed for northern blot or immunoblot analysis. […]"}, "[9]": {"system": "PEPCK promoter", "test": "PEPCK promoter-luciferase reporter assay in Fao hepatoma cells", "type": "cell-based, rat", "description": "as §1\nThe ability of PGC-1 to activate the PEPCK-promoter (using a luciferase reporter gene) in hepatoma cells was examined. Fao rat hepatoma cells were maintained in 10% FBS-RPMI and transfected in a 6 well format with 200 ng of pPL32-PEPCK-luciferase (or pGL3-PEPCK-luciferase), 100 ng CMV β-galactosidase, and […] of pCMV or pCMV-PGC-1 per well. Cells were harvested for luciferase assays 48 hours after transfection, and the readings were normalized by β-galactosidase activity. […] In the transient transfection assays described above, PGC-1 activated the wild-type PEPCK promoter-reporter gene by approximately 10-fold (FIG. 4).\nTo identify the regulatory elements mediating the effect of PGC-1 on this promoter, mutant constructs were utilized in which various regulatory elements within the PEPCK-luciferase reporter construct were substituted by a yeast Gal4 DNA binding element (FIG. 1; Wang, J. C. et al. (1999) Mol. Endocrinol. 13:604-618). […] However, mutation of the AF1 or AF3 site (or both) each reduced the PGC-1-mediated activation by 50-60%; a combination of the AF1-to-Gal4 substitution and additional block mutations in the GR binding sites (GR1, GR2) led to a small but significant further decrease. […] A replacement of the P3 (I) site, an element shared by the cAMP and thyroid hormone response units, by the Gal4 DNA binding element caused a modest (25%) reduction in the PGC-1 mediated activation of the PEPCK reporter. […] It also appears that there are other unidentified regulatory elements on the PEPCK promoter through which PGC-1 can produce a partial activation.\nThe AF1 and AF3 sites are both DR-1 type sequences that can bind several nuclear receptors. […] The AF3 element has also been associated with COUP-TF binding (Scott et al (1996) supra). […] Vectors encoding the Gal4 DBD, Gal4 DBD-HNF-4α, or Gal4 DBD-COUP-TF fusion proteins (500 ng per well) were cotransfected with the mutant receptors, containing a substitution of a particular element within the Gal4 DBD, to determine whether they can rescue the PGC-1 activity. […] In contrast, cotransfection of a Gal4-COUP-TF construct produced only a partial restoration (approximately 20-30% of that achieved by HNF-4α), and cotransfection of the Gal4 DBD alone had virtually no effect on the PGC-1 mediated activation. Very similar results were obtained at the AF3 site.\nThe role of the glucocorticoid response elements in the PEPCK promoter was also examined. […] Fao hepatoma cells were transfected as described above for FIG. 4. Dexamethasone (dex, 1 μM final concentration) was added for the final 24 hours."}, "[10]": {"system": "G6 Pase, PEPCK and PGC-1 mRNA", "test": "Insulin effect on mRNA levels and PGC-1 function in cultured liver cells", "type": "cell-based", "details": "for PGC-1 induced expression of PEPCK and glucose-6-phosphatase: cultured liver cells", "description": "This example describes experiments designed to determine whether insulin acts directly to suppress PGC-1 expression or function. The levels of PGC-1 mRNA were first examined in cells treated with various combinations of insulin, forskolin, and dexamethasone.\nHowever, PGC-1 function is negatively regulated by insulin in cultured liver cells. […] FKHR is regulated directly by Akt via phosphorylation. Stimulation by insulin results in activation of Akt, which phosphorylates FKHR, which in turn inactivates FKHR by causing it to exit the nucleus. Insulin treatment downregulates the ability of PGC-1 to induce the gluconeogenic genes PEPCK and glucose-6-phosphatase. PGC-1 induced expression of the genes was […] when a constitutively active FKHR was used, while a dominant-negative FKHR also downregulates the ability of PGC-1 to induce these genes, even in the absence of insulin."}},
  "data": [
    {"molecule": "CN(N=O)C(=O)N[C@H]1C(O)O[C@H](CO)[C@@H](O)[C@@H]1O", "note": "(mixture of isomers) [streptozotocin]", "values": [
      {"measurement": "PGC-1 in liver (Northern)", "setting": "[1]", "result": "consistently increased"}
    ]},
    {"molecule": "PGC-1: coactivator of nuclear receptors, expressed from transfected pCMV-PGC-1 or from adenovirus", "values": [
      {"measurement": "coactivation on wild type G6 Pase promoter-reporter", "setting": "[2]", "result": "coactivated FKHR"},
      {"measurement": "activation of 3×IRS promoter-luciferase reporter", "setting": "[3]", "result": "can coactivate FKHR"},
      {"measurement": "activation of G6 Pase promoter-luciferase reporter", "setting": "[4]; cotransfected with HNF-4α", "result": "strong coactivation"},
      {"measurement": "activation of G6 Pase promoter-luciferase reporter", "setting": "[4]; transfected alone", "result": "no activation"},
      {"measurement": "induction of gluconeogenic genes glucose-6-phosphatase and PEPCK", "setting": "[5]", "result": "in the presence, but not the absence, of HNF-4α"},
      {"measurement": "coactivation of HNF-4α on multimerized AF1 response element", "setting": "[6]", "result": "dramatically coactivates"},
      {"measurement": "coactivation of COUP-TF on multimerized AF1 response element", "setting": "[7]", "result": "no ability to coactivate"},
      {"measurement": "liver PEPCK mRNA (Northern)", "setting": "[8]", "result": "increased expression"},
      {"measurement": "liver mRNA for glucose-6-phosphatase (Northern)", "setting": "[8]", "result": "dramatic and uniform elevation"},
      {"measurement": "activation of wild-type PEPCK promoter-reporter gene", "setting": "[9]; Fao cells, 1 mg pCMV-PGC-1 per well, 48 hours", "result": "approximately 10 fold"},
      {"measurement": "reduction in PGC-1 mediated activation of the PEPCK reporter", "setting": "[9]; P3 (I) site replaced by Gal4 DNA binding element", "result": 25, "unit": "%"},
      {"measurement": "coactivation of PEPCK promoter through the glucocorticoid receptor", "setting": "[9]; dexamethasone 1 μM for the final 24 hours", "result": "in a ligand dependant manner"},
      {"measurement": "magnitude of PGC-1 activation", "setting": "[9]; mutation in the AF2 or the CRE site", "result": "did not produce an appreciable effect"},
      {"measurement": "reduction of PGC-1-mediated activation", "setting": "[9]; mutation of the AF1 or AF3 site (or both)", "result": "50-60%"}
    ]},
    {"molecule": "insulin", "values": [
      {"measurement": "G6 Pase mRNA levels", "setting": "[10]", "result": "downregulated"},
      {"measurement": "PGC-1 mRNA levels", "setting": "[10]", "result": "do not change"},
      {"measurement": "PGC-1 induced expression of PEPCK and glucose-6-phosphatase", "setting": "[10]", "result": "downregulates"}
    ]},
    {"molecule": "B1", "values": [
      {"measurement": "coactivation on wild type G6 Pase promoter-reporter", "setting": "[2]", "result": "further increased"},
      {"measurement": "activation of 3×IRS promoter-luciferase reporter", "setting": "[3]", "result": "increased activation"},
      {"measurement": "PGC-1 induced expression of PEPCK and glucose-6-phosphatase", "setting": "[10]", "result": "unchanged"}
    ]}
  ]
}
